This is an account of results in US12042483B2, “Prophylactic and therapeutic drug for nonalcoholic fatty liver disease” (Kowa Company, Ltd., priority 2017, dated 2024).

What all share (assay type): in vivo
For assay [1], the system named is NASH-HCC mouse. The assay can be described thus: Ballooning of hepatocytes score, NASH-HCC mouse model (Example 1, Compound 1 with tofogliflozin). The note with it: 3 weeks, group mean of scores 0-2, control 1.33, not significant vs control. As to the method:
A NASH-HCC mouse is a model animal that develops liver cirrhosis from fatty liver via NASH when it is fed with a high fat diet, and subsequently develops hepatocellular carcinoma (Non-Patent Document 9). The effect of compound 1 combined with tofogliflozin was examined using the NASH-HCC mouse model. NASH-HCC mice were prepared with reference to Non-Patent Document 9, and were used for this experiment. Specifically, male C57BL/6J mice were subcutaneously administered 200 μg of streptozotocin on the second day after birth. The mice were fed ad libitum with a high-fat diet (HFD-32, Clea Japan, Inc.) for 2 weeks starting from 4-week-old. […] Daily food consumption of the mice in each group were measured while the drugs were administered so that the mice of all groups were fed with the same amount of food as those for the control group. […] Using the specimens, the lipid droplet size in hepatocyte was analyzed by image analysis software Image J. The area of 6000 to 10,000 lipid droplets was measured in each specimen. The median of the lipid droplet area was calculated for each mouse and then the median and quartile were calculated for each group based on the median for each mouse in the group. […] Ballooning of hepatocytes in each mouse was scored under blind conditions according to the following criteria (Kleiner et al., Hepatology 41, 1313-21, 2005). […]

The test system of assay [2] is NASH-HCC mouse. The assay can be described thus: Lipid droplet size in hepatocytes, NASH-HCC mouse model (Example 1, Compound 1 with tofogliflozin). The note with it: 3 weeks, control 1.17, not significant vs control. On the procedure: A NASH-HCC mouse is a model animal that develops liver cirrhosis from fatty liver via NASH when it is fed with a high fat diet, and subsequently develops hepatocellular carcinoma (Non-Patent Document 9). The effect of compound 1 combined with tofogliflozin was examined using the NASH-HCC mouse model. NASH-HCC mice were prepared with reference to Non-Patent Document 9, and were used for this experiment. Specifically, male C57BL/6J mice were subcutaneously administered 200 μg of streptozotocin on the second day after birth. The mice were fed ad libitum with a high-fat diet (HFD-32, Clea Japan, Inc.) for 2 weeks starting from 4-week-old. The mice were separated into four groups as described in below 2) and were administered drugs from 6-week-old to 9-week-old as described in below 3). Daily food consumption of the mice in each group were measured while the drugs were administered so that the mice of all groups were fed with the same amount of food as those for the control group. […] Using the specimens, the lipid droplet size in hepatocyte was analyzed by image analysis software Image J. The area of 6000 to 10,000 lipid droplets was measured in each specimen. The median of the lipid droplet area was calculated for each mouse and then the median and quartile were calculated for each group based on the median for each mouse in the group. […]

Assay [3] has as its system NASH-HCC mouse. Put plainly: Ballooning of hepatocytes score, NASH-HCC mouse model (Example 2, Compound 1 with ipragliflozin). The note with it: 3 weeks, group mean of scores 0-2, control 1.50, not significant vs control. As to the method:
Ballooning of hepatocytes in each mouse was scored under blind conditions according to the following criteria (Kleiner et al., Hepatology 41, 1313-21, 2005). No balloon cells: 0 Balloon cell is rare (Few balloon cells): 1 Many Balloon cells or prominent (Ballooning): 2 Then, the mean value of the scores (ballooning score) was calculated in each group and the values were shown (FIG. 2). Statistical processing was performed using statistical software EZR, which extends the functions of R and R commander. The software is distributed free of charge on the website of Jichi Medical University Saitama Medical Center (Bone Marrow Transplantation (2013) 48, 452-458). The Steel test (N=5 to 7) was performed using EZR, the drug administration group was labeled with the mark * in figures when the group had the significant difference at p<0.05 with respect to the control group, and labeled with the mark ** when the group had the significant difference at p<0.01. The effect of Compound 1 combined with ipragliflozin was examined in NASH-HCC mice (Non-Patent Document 9). NASH-HCC mice were prepared in the same manner as in 1) of Example 1, and were used for this experiment. […]

Setting [4] is: 10 mg/kg tofogliflozin, oral once a day.
Setting [5] is: 0.1 mg/kg Compound 1, oral once a day.

For `CCc1ccc(Cc2ccc3c(c2)[C@]2(OC3)O[C@H](CO)[C@@H](O)[C@H](O)[C@H]2O)cc1` [tofogliflozin, (1S,3′R,4'S,5'S,6′R)-6-[(4-ethylphenyl)methyl]-6′-(hydroxymethyl)-3′,4′,5′,6′-tetrahydro-3H-spiro[2-benzofuran-1,2′-pyran]-3′,4′,5′-triol], the ballooning score in the assay on NASH-HCC mouse [1] (setting [4]) is recorded as 0.71. Besides, in the assay with NASH-HCC mouse [2] (setting [4]), the “median of lipid droplet size” value amounted to 1.00 μm^2.
Regarding `OC[C@H]1O[C@@H](c2ccc(F)c(Cc3cc4ccccc4s3)c2)[C@H](O)[C@@H](O)[C@@H]1O` [ipragliflozin, (1S)-1,5-anhydro-1-C-{3-[(1-benzothiophen-2-yl)methyl]-4-fluorophenyl}-D-glucitol], the ballooning score in the assay on NASH-HCC mouse [3] (3 mg/kg ipragliflozin, oral once a day) came to 0.88.
On to `CC[C@@H](Oc1cccc(CN(CCCOc2ccc(OC)cc2)c2nc3ccccc3o2)c1)C(=O)O` [Compound 1, (R)-2-[3-[[N-(benzoxazol-2-yl)-N-3-(4-methoxyphenoxy)propyl]aminomethyl]phenoxy]butyric acid], for which the figures for the ballooning score with NASH-HCC mouse [1] (setting [5]) and in the assay with NASH-HCC mouse [3] (setting [5]) were 0.60 and 1.35, respectively. Besides, the “median of lipid droplet size” value in the assay on NASH-HCC mouse [2] (setting [5]) is listed as 1.00 μm^2.
